The values below come from patent US12331045B2, “Substituted phenyl oxazolone compounds” (Bristol-Myers Squibb Company, priority 2023, dated 2025).

Holding throughout (type): cell-based
One assay addresses T1, IKZF4 Eos (Homo sapiens, UniProt Q96SW2+Q9H2S9).
T1 construct: endogenous in cells; host or cells: primary human CD4+CD127lowCD25+ Treg cells sorted from healthy-donor leukopaks
Briefly: Human T Regulatory Cells Reprogramming Assay. To be noted: sorted human Treg cells, 12-13 days; 50% reduction vs DMSO. Here is the method:
(§1) Human CD4^+ T cells were isolated from fresh healthy leukopaks (Stemcell Technologies) using the RosetteSep Human CD4^+ T cell enrichment cocktail (Stemcell Technologies) and Ficoll density gradient centrifugation. Leukopaks were diluted with an equal volume of phosphate-buffered saline (PBS [Gibco]) supplemented with 2% fetal bovine serum (FBS, VWR Lifescience) and incubated with RosetteSep Human CD4^+ T cell enrichment cocktail for 20 minutes before layering on Ficoll-Paque Plus solution (GE Health Care). The cell-rich interface layer was harvested and washed twice with PBS supplemented with 2% FBS. Regulatory T cells were then isolated manually using the EasySep Human CD4^+CD127^lowCD25^+ Regulatory T cell isolation kit (Stemcell Technologies) according to the manufacturer's instructions. Cells were rested overnight in Roswell Park Memorial Institute (RPMI) 1640 media (Gibco) supplemented with 10% FBS, Pen/Strep (Gibco), MEM-NEAA (Gibco), and sodium pyruvate (Gibco) in a humidified incubator (37° C., 5% CO2). […]
(§2) For flow cytometry staining, cells were washed twice with flow cytometry staining buffer (Thermo Fisher) and incubated in Human Tru-stain Fc block (Biolegend) for 10 minutes before adding eFluor780 viability dye (Thermo Fisher) and surface marker antibody cocktail for 30 minutes at 4° C. […] Data were analyzed using FlowJo version 10 and GraphPad Prism Software.

Assay [1] has as its target T2, IKZF2 Helios (Homo sapiens, UniProt Q96SW2+Q9UKS7). Briefly: Human T Regulatory Cells Reprogramming Assay. The arrangement: endogenous in cells; host or cells: primary human CD4+CD127lowCD25+ Treg cells sorted from healthy-donor leukopaks. The settings on record: sorted human Treg cells, 12-13 days; 50% reduction vs DMSO. The procedure: as §1, §2
Assay [2] concerns the target T3, IKZF1 Ikaros (Homo sapiens, UniProt Q13422+Q96SW2). Put plainly: Human CD8+ T Cell Reprogramming Assay (method headed Human CD8+ T Cell Degradation Assay). More on the design: HELIOS-PE-Cy7, EOS-PE, IKAROS-PECF594, AIOLOS-AF647; endogenous in cells; host or cells: healthy-donor human PBMC; CD8+ T cells analysed by flow cytometry. The settings on record: CD8+ T cells in human PBMC, 24 hours; for IKZF1 Ikaros Maximum Observed Degradation: flow cytometry; for DC50: 50% reduction vs DMSO. Here is the method:
(§3) Cryopreserved healthy donor human peripheral blood mononuclear cells (PBMC; obtained from Stemcell Technologies or Blood Works Northwest) from two healthy donors were thawed and seeded at 500,000 cells/well of 96-well round bottom plates in RPMI 1640 media (Gibco) supplemented with 10% FBS, Pen/Strep (Gibco), MEM-NEAA (Gibco), and sodium pyruvate (Gibco). Cells were treated with titrated doses of compound for 24 hours at 37° C., 5% CO2 before analyzing by flow cytometry.
(§4) For flow cytometry staining, cells were washed twice with flow cytometry staining buffer (Thermo Fisher) and incubated in Human Tru-stain Fc block (Biolegend) for 10 minutes before adding eFluor780 viability dye (Thermo Fisher) and surface marker antibody cocktail containing LD-eFluor780, CD3-BUV-395, CD4-BUV805, CD8-FITC, CD25-BV605, FoxP3-BV421, HELIOS-PE-Cy7, EOS-PE, IKAROS-PECF594, AIOLOS-AF647 for 30 minutes at 4° C. Cells were then fixed and permeabilized by incubation with permeabilization buffer (eBioscience FoxP3 buffer set 00-5523-00) for 30 minutes at 4° C., as per the kit manufacturer's instructions. Cells were washed twice with the Perm/Wash buffer suppled in the kit as per the manufacturer's instructions and incubated overnight at 4° C. with an intracellular antibody cocktail comprised of antibodies specific for the transcription factors shown in Table C. Cells were washed twice with Perm/Wash buffer and resuspended in flow cytometry staining buffer (Thermo Fisher) prior to acquisition. Sample acquisition and analysis was performed using a BD LSRFortessa (BD Biosciences) flow cytometer. Single stain controls for each fluorochrome were prepared using UltraComp eBead Compensation Beads (Thermo Fisher). Data were analyzed using FlowJo version 10 and GraphPad Prism Software.
(In general: A flow cytometer gives signals particle by particle.)

For assay [3], the target named is T4, IKZF3 Aiolos (Homo sapiens, UniProt Q96SW2+Q9UKT9). The assay is described as above. The arrangement: HELIOS-PE-Cy7, EOS-PE, IKAROS-PECF594, AIOLOS-AF647; endogenous in cells; host or cells: healthy-donor human PBMC; CD8+ T cells analysed by flow cytometry. To be noted: CD8+ T cells in human PBMC, 24 hours; for IKZF3 Aiolos Maximum Observed Degradation: flow cytometry; for DC50: 50% reduction vs DMSO. The procedure: as §3, §4
T4 sequence (Q9UKT9 whole entry): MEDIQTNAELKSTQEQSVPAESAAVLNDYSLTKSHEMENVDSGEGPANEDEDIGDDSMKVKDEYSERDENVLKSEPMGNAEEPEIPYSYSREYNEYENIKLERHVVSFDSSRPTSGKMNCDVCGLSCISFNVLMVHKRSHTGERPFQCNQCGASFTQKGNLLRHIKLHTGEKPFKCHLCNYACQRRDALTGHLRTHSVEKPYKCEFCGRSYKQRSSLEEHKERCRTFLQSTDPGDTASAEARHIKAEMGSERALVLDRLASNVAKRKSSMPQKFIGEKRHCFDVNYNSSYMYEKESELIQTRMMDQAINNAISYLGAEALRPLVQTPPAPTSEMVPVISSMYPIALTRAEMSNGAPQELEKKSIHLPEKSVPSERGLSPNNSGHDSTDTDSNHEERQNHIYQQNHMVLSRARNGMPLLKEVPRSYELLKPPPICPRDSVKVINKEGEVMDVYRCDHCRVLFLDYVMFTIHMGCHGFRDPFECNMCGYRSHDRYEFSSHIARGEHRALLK
T4 sequence (Q96SW2 whole entry): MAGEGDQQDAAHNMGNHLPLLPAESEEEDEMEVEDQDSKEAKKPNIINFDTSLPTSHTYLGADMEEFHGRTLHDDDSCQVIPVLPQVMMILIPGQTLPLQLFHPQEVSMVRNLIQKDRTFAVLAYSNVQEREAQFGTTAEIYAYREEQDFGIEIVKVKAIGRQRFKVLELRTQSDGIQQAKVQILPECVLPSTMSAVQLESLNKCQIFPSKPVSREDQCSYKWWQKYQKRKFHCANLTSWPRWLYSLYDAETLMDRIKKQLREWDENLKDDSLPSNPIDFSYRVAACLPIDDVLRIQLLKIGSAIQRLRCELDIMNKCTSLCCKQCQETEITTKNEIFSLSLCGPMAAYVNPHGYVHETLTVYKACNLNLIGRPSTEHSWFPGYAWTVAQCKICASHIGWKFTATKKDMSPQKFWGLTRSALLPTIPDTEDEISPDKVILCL
T4 sequence (Q16531 whole entry partner): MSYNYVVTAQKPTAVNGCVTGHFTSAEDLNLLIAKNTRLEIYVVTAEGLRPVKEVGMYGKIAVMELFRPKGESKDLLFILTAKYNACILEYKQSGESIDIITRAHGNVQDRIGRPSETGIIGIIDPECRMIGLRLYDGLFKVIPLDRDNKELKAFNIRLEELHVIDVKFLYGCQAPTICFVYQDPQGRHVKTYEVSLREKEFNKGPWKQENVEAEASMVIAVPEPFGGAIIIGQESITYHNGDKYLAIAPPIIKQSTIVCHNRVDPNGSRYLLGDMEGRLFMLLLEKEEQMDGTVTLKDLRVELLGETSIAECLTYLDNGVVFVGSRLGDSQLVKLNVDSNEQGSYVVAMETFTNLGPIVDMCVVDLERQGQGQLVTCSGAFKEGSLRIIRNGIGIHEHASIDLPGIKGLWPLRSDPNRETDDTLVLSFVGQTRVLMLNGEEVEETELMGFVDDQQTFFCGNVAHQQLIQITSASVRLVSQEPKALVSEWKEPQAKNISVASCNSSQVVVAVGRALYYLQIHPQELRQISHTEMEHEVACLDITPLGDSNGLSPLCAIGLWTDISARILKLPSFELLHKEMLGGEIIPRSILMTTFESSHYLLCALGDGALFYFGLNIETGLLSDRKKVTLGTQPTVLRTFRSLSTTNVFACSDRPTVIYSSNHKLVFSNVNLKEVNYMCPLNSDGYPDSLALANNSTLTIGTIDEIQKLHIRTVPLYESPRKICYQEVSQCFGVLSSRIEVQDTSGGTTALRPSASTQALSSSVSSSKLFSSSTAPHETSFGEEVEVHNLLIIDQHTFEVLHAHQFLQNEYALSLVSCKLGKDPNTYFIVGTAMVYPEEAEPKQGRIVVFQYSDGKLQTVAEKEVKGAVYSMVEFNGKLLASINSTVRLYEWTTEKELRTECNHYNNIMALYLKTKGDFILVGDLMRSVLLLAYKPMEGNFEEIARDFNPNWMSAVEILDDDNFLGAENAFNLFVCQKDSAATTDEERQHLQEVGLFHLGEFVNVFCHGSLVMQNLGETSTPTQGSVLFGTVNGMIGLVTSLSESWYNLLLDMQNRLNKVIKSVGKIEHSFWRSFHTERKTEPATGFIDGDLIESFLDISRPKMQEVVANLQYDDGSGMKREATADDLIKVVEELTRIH

In assay [4] the target is T4, IKZF3 Aiolos. Put plainly: Jurkat Cellular Degradation Assay. To be noted: Jurkat cells, 72 h; for IKZF3 Aiolos max % deg. observed: flow cytometry, 100% = complete degradation. The procedure:
(§5) Jurkat cells were plated at 80,000 cells/well in 40 μL RPMI+10% FBS in a 384-well cell culture plate prior to using acoustic dispensing technology for adding a compound of interest. Cell cultures were incubated for 72 h at 37° C., and 5% CO2. In order to facilitate analysis, cell cultures were spun down at 200 rpm for 5 min and the supernatant was discarded. After shaking the plate to dislodge the cell pellet, cells were resuspended in 50 qL of Fixation Buffer (eBioscience FoxP3 buffer set 00-5523-00) for 60 min at room temperature. After centrifuging and discarding the supernatant, cells were permeabilized with 50 μL of Permeabilization buffer (eBioscience FoxP3 buffer set 00-5523-00) for 10 min at room temperature. Following permeabilization, cells were spun down and the supernatant was replaced with 20 μL fluorescently labelled antibodies against Helios, Ikaros and Aiolos or corresponding Isotype controls in 1-Penneabilization buffer (Ikaros-Alexa488 [Biolegend, Cat #368408, 1:50], Helios-PE [CST, Cat #29360, 1:50], Aiolos-Alexa647 [Biolegend, Cat #371106 Biolegend, 1:25]) and staining reactions were incubated for 1 h at room temperature while protected from light. Subsequently, 30 μL of 1× Permeabilization buffer was added prior to centrifuging the cells and discarding the supernatant. Stained cells were resuspended in 25 μL of flow cytometry staining buffer [PBS+0.2% bovine serum albumin (BSA)] and analyzed using an Intellicyt Ique Plus flow cytometer.

The target in assay [5] is T2, IKZF2 Helios. Briefly: Jurkat Cellular Degradation Assay. More on the design: endogenous in cells. The settings on record: Jurkat cells, 72 h; concentration reducing protein by 50% vs DMSO. Here is the method: as §5, with “Subsequently, 30 μL of 1× Permeabilization buffer was added prior to centrifuging the cells and discarding the supernatant.” left out
Assay [6] concerns the target T3, IKZF1 Ikaros. Briefly: Jurkat Cellular Degradation Assay. More on the design: HELIOS-PE-Cy7, EOS-PE, IKAROS-PECF594, AIOLOS-AF647; endogenous in cells. To be noted: Jurkat cells, 72 h; for IKZF1 Ikaros max % deg. observed: flow cytometry, 100% = complete degradation. The procedure: as §5
Assay [7] deals with T3, IKZF1 Ikaros. Put plainly: Human T Regulatory Cells Degradation Assay. To be noted: 20 hours. The arrangement: HELIOS-PE-Cy7, EOS-PE, IKAROS-PECF594, AIOLOS-AF647; endogenous in cells.
Assay [8] addresses T2, IKZF2 Helios. Briefly: Human T Regulatory Cells Degradation Assay. The arrangement: endogenous in cells; host or cells: primary human CD4+CD127lowCD25+ Treg cells sorted from healthy-donor leukopaks. The settings on record: 20 hours. The procedure:
Cryopreserved human T regulatory cells were thawed in RPMI+10% FBS+20 ng/mL IL-2. After being spun at 1200 rpm for 5 mins, the cells were resuspended in RPMI+10% FBS+20 ng/mL and rested at 37° C. with 5% CO2 for 3 hours. The cells were then plated at 40,000 cells/well in 40 μL RPMI+10% FBS+20 ng/mL human IL-2 in a 384 well cell culture plate prior to using acoustic dispensing technology (ECHO 555) for adding compounds of interest. Cell cultures were incubated for 20 hours at 37° C., and 5% CO2. In order to facilitate analysis, cell cultures were spun down at 1200 rpm for 5 minutes and the supernatant was discarded using an EL406 plate washer. After washing three times with 70 μL PBS, cell pellets were resuspended in 50 μL of near IR viability staining solution (Life Technologies, Cat #L34975) and incubated for 30 minutes on ice protected from light. Cells were washed three times with […] PBS+0.5% BSA using an EL406 plate washer. After shaking the plate to dislodge the cell pellet, cells were resuspended in 50 μL of Fixation Buffer (eBioScience FoxP3 buffer set 00-5523-00) for 60 minutes at room temperature. […] Stained cells were resuspended in 30 μL of flow cytometry staining buffer (PBS+0.5% BSA) and analyzed using an Intellicyt Ique Plus flow cytometer.

[9] abbreviates: concentration reducing protein by 50% vs DMSO.

T2 sequence (Q9UKS7 whole entry): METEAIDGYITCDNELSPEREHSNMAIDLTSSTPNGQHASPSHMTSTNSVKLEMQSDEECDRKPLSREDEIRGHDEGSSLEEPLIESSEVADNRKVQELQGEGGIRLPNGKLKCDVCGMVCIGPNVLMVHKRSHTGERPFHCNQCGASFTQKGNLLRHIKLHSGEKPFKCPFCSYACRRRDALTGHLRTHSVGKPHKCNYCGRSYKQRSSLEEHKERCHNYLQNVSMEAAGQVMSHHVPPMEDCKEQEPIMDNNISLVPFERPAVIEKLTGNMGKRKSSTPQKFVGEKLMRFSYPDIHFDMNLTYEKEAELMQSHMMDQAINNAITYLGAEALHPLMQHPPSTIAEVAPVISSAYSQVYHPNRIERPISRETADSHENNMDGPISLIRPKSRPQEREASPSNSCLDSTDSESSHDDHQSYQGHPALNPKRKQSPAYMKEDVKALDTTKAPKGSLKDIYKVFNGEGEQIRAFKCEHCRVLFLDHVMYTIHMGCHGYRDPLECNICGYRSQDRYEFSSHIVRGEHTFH
T2 sequence (Q96SW2 whole entry): as the sequence (Q96SW2 whole entry) above
T2 sequence (Q16531 whole entry partner): as the sequence (Q16531 whole entry partner) above
T3 sequence (Q13422 whole entry): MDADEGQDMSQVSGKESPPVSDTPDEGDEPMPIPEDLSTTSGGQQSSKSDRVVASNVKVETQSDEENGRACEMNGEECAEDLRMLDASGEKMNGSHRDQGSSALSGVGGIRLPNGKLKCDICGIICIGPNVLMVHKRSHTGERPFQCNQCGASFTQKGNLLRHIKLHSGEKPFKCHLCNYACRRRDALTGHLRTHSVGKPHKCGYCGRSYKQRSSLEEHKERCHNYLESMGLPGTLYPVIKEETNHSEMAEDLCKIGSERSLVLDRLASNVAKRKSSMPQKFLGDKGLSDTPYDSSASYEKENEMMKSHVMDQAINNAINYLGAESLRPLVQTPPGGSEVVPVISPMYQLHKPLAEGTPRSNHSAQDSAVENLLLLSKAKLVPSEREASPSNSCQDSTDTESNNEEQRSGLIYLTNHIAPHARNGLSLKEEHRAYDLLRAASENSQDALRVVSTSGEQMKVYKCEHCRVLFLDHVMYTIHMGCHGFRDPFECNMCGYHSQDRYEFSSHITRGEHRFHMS
T3 sequence (Q96SW2 whole entry): as the sequence (Q96SW2 whole entry) above
T3 sequence (Q16531 whole entry partner): as the sequence (Q16531 whole entry partner) above
T1 sequence (Q9H2S9 whole entry): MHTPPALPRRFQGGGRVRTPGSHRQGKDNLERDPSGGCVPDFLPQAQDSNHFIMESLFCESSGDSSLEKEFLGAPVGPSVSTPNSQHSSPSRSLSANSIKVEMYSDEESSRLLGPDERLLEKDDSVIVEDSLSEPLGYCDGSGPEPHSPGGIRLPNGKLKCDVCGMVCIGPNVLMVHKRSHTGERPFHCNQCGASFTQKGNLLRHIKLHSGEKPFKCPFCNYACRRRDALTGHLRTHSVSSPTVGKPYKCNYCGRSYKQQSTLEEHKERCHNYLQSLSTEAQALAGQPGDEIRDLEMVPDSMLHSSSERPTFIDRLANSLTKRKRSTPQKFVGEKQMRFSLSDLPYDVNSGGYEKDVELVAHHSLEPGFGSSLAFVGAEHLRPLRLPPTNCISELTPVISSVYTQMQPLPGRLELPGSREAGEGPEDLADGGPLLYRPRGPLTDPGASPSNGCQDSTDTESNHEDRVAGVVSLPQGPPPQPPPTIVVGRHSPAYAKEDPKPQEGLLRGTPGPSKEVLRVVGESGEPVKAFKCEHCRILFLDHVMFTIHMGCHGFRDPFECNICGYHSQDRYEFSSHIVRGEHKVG
T1 sequence (Q96SW2 whole entry): as the sequence (Q96SW2 whole entry) above
T1 sequence (Q16531 whole entry partner): as the sequence (Q16531 whole entry partner) above

Turning to `[2H]C1([2H])C(=O)NC(=O)C([2H])(n2cc(-c3ccc(-c4cc(C)c(C)c(N)n4)cc3F)oc2=O)C1([2H])[2H]` (stereo not drawn) [Example 2, 3-(5-(4-(6-amino-4,5-dimethylpyridin-2-yl)-2-fluorophenyl)-2-oxooxazol-3(2H)-yl) piperidine-2,6-dione-3,4,4,5,5-D5], the DC50 on IKZF4 Eos amounted to 0.63 nM; on IKZF2 Helios [1] it was 42 nM; at IKZF1 Ikaros [2], 139 nM; on IKZF3 Aiolos [3], 26 nM. Also, the “IKZF1 Ikaros Maximum Observed Degradation” value at IKZF1 Ikaros [2] is 66%. Besides, at IKZF3 Aiolos [3], the “IKZF3 Aiolos Maximum Observed Degradation” value is given as 71%.

As for `Cc1cc(-c2ccc(-c3cn(C4CCC(=O)NC4=O)c(=O)o3)c(F)c2)nc(N)c1C` (stereo not drawn) [Example 1, 3-(5-(4-(6-Amino-4,5-dimethylpyridin-2-yl)-2-fluorophenyl)-2-oxooxazol-3(2H)-yl) piperidine-2,6-dione], at IKZF3 Aiolos [4], the “IKZF3 Aiolos max % deg. observed” value came out at 54%. Further, the DC50 at IKZF3 Aiolos [4] (setting [9]) was 4.92 µM; at IKZF4 Eos, 1.5 nM; on IKZF2 Helios [5] it was 13.6 nM; at IKZF1 Ikaros [6] (setting [9]) it was 1080 nM; at IKZF1 Ikaros [7] (50% reduction vs DMSO) it was 5.47 µM; at IKZF2 Helios [8] (50% reduction vs DMSO), 5.2 nM. The DC50 at IKZF2 Helios [1] came to 85 nM; at IKZF1 Ikaros [2] it was 102 nM; on IKZF3 Aiolos [3], 19 nM. Moreover, the “IKZF1 Ikaros max % deg. observed” value on IKZF1 Ikaros [6] was found to be 66%; on IKZF1 Ikaros [7] (flow cytometry), 55%. Moreover, the “IKZF2 Helios max % deg. observed” value at IKZF2 Helios [8] (flow cytometry) was 99%. Further, the “IKZF1 Ikaros Maximum Observed Degradation” value at IKZF1 Ikaros [2] was 74%. For the same compound, at IKZF3 Aiolos [3], the “IKZF3 Aiolos Maximum Observed Degradation” value was found to be 77%.

`O=C1CCC(n2cc(-c3ccc(Br)cc3F)oc2=O)C(=O)N1` (stereo not drawn) [Comparative Compound B, 3-(5-(4-bromo-2-fluorophenyl)-2-oxooxazol-3(2H)-yl)piperidine-2,6-dione, reference compound]: on IKZF3 Aiolos [4], the “IKZF3 Aiolos max % deg. observed” value is 15%.

On to `O=C1CCC(n2cc(-c3ccccc3)oc2=O)C(=O)N1` (stereo not drawn) [Comparative Compound A, 3-(2-oxo-5-phenyloxazol-3(2H)-yl)piperidine-2,6-dione, reference compound], for which, at IKZF3 Aiolos [4], the “IKZF3 Aiolos max % deg. observed” value is 46%. For the same compound, at IKZF1 Ikaros [6], the “IKZF1 Ikaros max % deg. observed” value was determined as 57%.
